From PMC8903829 (eLife, 2022)
Values joined by “and” are separate entries in the source; they are usually repeats but may differ in a detail not shown here. Equal values may be shown once. Read-outs that look alike come from different tables or passages of the source.

Key:
Type in all cases: in vivo, mouse
Scn8a^N1768D/+ mice = assay: Modified 6 Hz psychomotor seizure assay; details: for SCN8a mouse 6Hz chronic, Fraction of animals seizing: day 7, 2 hr after 13th dose; for SCN8a mouse 6Hz acute, Fraction of animals seizing: 2 hr; for EC50: Scn8a^N1768D/+ 6 Hz model
Description: (§1) Phenytoin was formulated in physiologic saline and was administered intraperitoneally (i.p.) using a 25-gauge needle at a dose volume of 10 mL/kg. All compounds were administered 2 hr prior to electrical seizure induction for all seizure models employed in this study.
Scn8a^N1768D/+heterozygous mice were tested at 5 weeks of age (p35). The modified 6 Hz seizure assay in Scn8a^N1768D/+heterozygous mice was adapted from the traditional 6 Hz assay psychomotor seizure assay to provide a measure of in vivo on target (NaV1.6 mediated) efficacy ([Barton et al., 2001]). The modified assay used a low frequency (6 Hz) but long-duration stimulation (3 s) to induce seizures. […] An electroshock (6 Hz, 12 mA) was delivered for 3 s (at 0.3-ms pulse interval) by corneal electrodes (Electro Convulsive Therapy Unit 57,800 from Ugo Basile). Immediately prior to the electroshock, the animals’ eyes were anesthetized with a drop of Alcaine (0.5% proparacaine hydrochloride).
An animal was considered protected in the assay upon prevention of GTC with hindlimb extension and was then scored ‘0’. An animal displaying GTC with hindlimb extension was considered not protected and is then scored ‘1’. The experimenter scoring the seizure behavior was blinded to the treatment.

wild-type mice (CF-1) = assay: DC-Maximal electroshock seizure assay (DC-MES); details: for WT mouse DCMES Chronic, Fraction of animals seizing: day 7, 2 h after 13th dose; for WT mouse DCMES acute, Fraction of animals seizing: 2 h
Description: as §1
The maximal electroshock seizure (MES) assay has been extensively used in the search for anticonvulsant substances ([Löscher et al., 1991]; [Piredda et al., 1985]; [White et al., 1995]). The MES assay is sensitive to nonselective NaV inhibitors. It is considered a model for generalized tonic-clonic (GTC) seizures and provides an assessment of seizure spread. Briefly, an electroshock of direct current (DC) was delivered by corneal electrodes (Electro Convulsive Therapy Unit 57,800 from Ugo Basile). The parameters of stimulation were different between mice and rats. In CF1 mice aged 9–12 weeks, a direct current of 50 mA (60 Hz) was delivered for 0.2 s (pulse width of 0.5ms), whereas in Sprague Dawley (SD) rats aged 5–6 weeks, a direct current of 150 mA (60 Hz) was delivered for 0.3 s (pulse width of 0.5ms). Immediately prior to the electroshock, the animals’ eyes were anesthetized with a drop of Alcaine (0.5% proparacaine hydrochloride).
An animal was considered protected in the assay in the absence of a GTC with hindlimb extension and is then scored ‘0’. An animal displaying GTC with hindlimb extension was considered not protected and is then scored ‘1’. The experimenter scoring the seizure behavior was blinded to the treatment.

[1] = Bioanalytical assessment of plasma and brain concentrations after 6 Hz assay; details: for Mean [Plasma] / Mean [Brain] / concentration at 2 hr: Scn8a mice; for concentration at 2 hr: mouse, po
Description: Approximately 0.5 mL of blood was collected from each mouse at the end of the assay via cardiac puncture under deep anesthesia. The blood samples were collected in a syringe and transferred to tubes containing EDTA. Blood was stored at 4 °C until centrifuged within 30 min of collection. Plasma was harvested and placed on dry ice and stored in a freezer set to maintain a temperature of –70°C to –80°C until analysis. Brains were harvested immediately after blood collection and placed on dry ice prior to storage in a freezer set to maintain a temperature of –70°C to –80°C until analysis.
Extraction of plasma samples was carried out by protein precipitation using acetonitrile. Plasma samples (50 µL) were mixed with 50 µL of internal standard (IS) solution in water followed by addition of 10 µL of concentrated ortho-phosphoric acid and 200 µL of acetonitrile. Samples were vortexed for 30 seconds, centrifuged at 13,000 rpm for 20 min, decanted in to a 96-well plate, and further centrifuged at 4000 rpm for 20 min. The samples were analyzed by UHPLC-ESI-MS/MS as described below.
Prior to extraction, pre-weighed whole brains were homogenized in 1:1 acetonitrile/water (v/v) (4 mL per mouse brain) using an IKA T18 ULTRA-TURRAX Homogenizer at the setting of 4 for approximately 2 min. The homogenate was centrifuged at 13,000 rpm for 20 min and 50 µL of the supernatant were treated exactly as described above for plasma samples. […]
Samples were analyzed by UHPLC-ESI MS/MS using a TQ-5500 Sciex triple quadrupole mass spectrometer equipped with a Shimadzu Nexera UHPLC pump and auto-sampler system using an ACE C18 PFP, 2.50 × 50 mm, 1.7 µm particle size column and gradient elution consisting of solvent A (0.1% formic acid in water) and solvent B (0.1% formic acid in acetonitrile) starting at 20% B from 0 min to 0.4 min and then increased to 100% B from 0.4 min to 0.6 min. At 2.0 min, the mobile phase composition was switched back to […] for 1 min. The flow rate used throughout the experiment was […]. […] The UHPLC-ESI MS/MS system was controlled by Analyst 1.6.
Sample concentrations were determined using a linear calibration function, weighted 1 /X, generated by the regression of analyte to IS peak area ratios in the standard samples to their respective concentrations. Acceptance criteria for the analytical run required that the back calculated values of the standards and the QC samples fell within ±20% of their nominal values, except for the lowest standard or lower limit of quantitation (LLOQ), for which the acceptance criterion was ±25%. At least 6 out of 12 standard points had to show back-calculated values within ±20% of their nominal concentrations for the calibration to be accepted. At least three QC samples, one at each level, had to show back-calculated values within ±20% of their nominal concentrations for the whole sample batch to be valid.

[2] = 6 mg/kg PO every 12 hr, day 7, 2 hr after 13th dose, 6 mg/kg
[3] = 100 mg/kg PO single dose, after assay 2 hr post dose, 100 mg/kg

With `Cc1cc(S(=O)(=O)Nc2cscn2)c(F)cc1N(C)[C@H]1CCN(Cc2ccccc2)C1` [NBI-921352] the “SCN8a mouse 6Hz chronic, Fraction of animals seizing” value (Scn8a^N1768D/+ mice; 2 mg/kg PO every 12 hr) was 0.5, the “SCN8a mouse 6Hz acute, Fraction of animals seizing” value (“SCN8a mouse 6Hz acute, Fraction” for short) (Scn8a^N1768D/+ mice; 2 mg/kg PO single dose) was 0.8 and the “SCN8a mouse 6Hz acute, Fraction” value (Scn8a^N1768D/+ mice; 3 mg/kg PO single dose) was 0.8. For the same molecule, the “SCN8a mouse 6Hz chronic, Fraction of animals seizing” value (Scn8a^N1768D/+ mice; 6 mg/kg PO every 12 hr) was 0.34 and 0.429 and 0.5, the “SCN8a mouse 6Hz acute, Fraction” value (Scn8a^N1768D/+ mice; 6 mg/kg PO single dose) was 0.5 and 0.667 and 0.834 and 0.715 and the “SCN8a mouse 6Hz acute, Fraction” value (Scn8a^N1768D/+ mice; 10 mg/kg PO single dose) was 0.57 and 0.4. The “SCN8a mouse 6Hz acute, Fraction” value (Scn8a^N1768D/+ mice; 30 mg/kg PO single dose) was 0.43 and 0.5 and 0.333 and 0.4, the “SCN8a mouse 6Hz acute, Fraction” value (Scn8a^N1768D/+ mice; 200 mg/kg PO single dose) was 0 and the “SCN8a mouse 6Hz acute, Fraction” value (Scn8a^N1768D/+ mice; 300 mg/kg PO single dose) was 0. The EC50 (Scn8a^N1768D/+ mice; Mus musculus, 2 hr post dose (oral; phenytoin i.p.), read-out: brain EC50) was 64 nM, the EC50 (Scn8a^N1768D/+ mice; Mus musculus, 2 hr post dose, read-out: plasma EC50) was 37 nM and the ED50 (Scn8a^N1768D/+ mice; Mus musculus, oral, 2 hr prior to stimulation, read-out: ED50, prevention of GTC with hindlimb extension) was 15 mg/kg. The “WT mouse DCMES Chronic, Fraction of animals seizing” value (from here on “WT mouse DCMES Chronic, Fraction”) (wild-type mice (CF-1); 3 mg/kg PO every 12 hr) was 0.4 and 0.25, the “WT mouse DCMES acute, Fraction of animals seizing” value (shortened to “WT mouse DCMES acute, Fraction”) (wild-type mice (CF-1); 3 mg/kg PO single dose) was 0.8 and 0.75 and 0.7143 and the “WT mouse DCMES Chronic, Fraction” value (wild-type mice (CF-1); 5 mg/kg PO every 12 hr) was 0.25 and 0.2857. For the same molecule, the “WT mouse DCMES acute, Fraction” value (wild-type mice (CF-1); 5 mg/kg PO single dose) was 0.625 and 0.7143, the “WT mouse DCMES Chronic, Fraction” value (wild-type mice (CF-1); 10 mg/kg PO every 12 hr) was 0.2 and the “WT mouse DCMES acute, Fraction” value (wild-type mice (CF-1); 10 mg/kg PO single dose) was 0.6 and 0.4286 and 0.6667. The “WT mouse DCMES acute, Fraction” value (wild-type mice (CF-1); 30 mg/kg PO single dose) was 0.3333 and 0.4 and 0.4286, the “WT mouse DCMES acute, Fraction” value (wild-type mice (CF-1); 100 mg/kg PO single dose) was 0.2857 and the “WT mouse DCMES acute, Fraction” value (wild-type mice (CF-1); 200 mg/kg PO single dose) was 0.1667. The EC50 (wild-type mice (CF-1); WT mouse DC-MES, 2 hr post dose (oral; phenytoin i.p.), read-out: brain EC50) was 200 nM, the ED50 (wild-type mice (CF-1); WT mouse DC-MES, oral, 2 hr, read-out: ED50, prevention of GTC with hindlimb extension) was 23 mg/kg and the EC50 (wild-type mice (CF-1); WT mouse DC-MES, read-out: plasma EC50) was 520 nM. For the same molecule, the “Mean [Plasma]” value ([1]; 3 mg/kg PO single dose, after assay 2 hr post dose, 3 mg/kg) was 0.003985 µM, the “Mean [Brain]” value [1, 2] was 0.02201 µM and 0.01923 µM and the “Mean [Plasma]” value [1, 2] was 0.01663 µM and 0.02029 µM. For the same molecule, the “Mean [Plasma]” value ([1]; 10 mg/kg PO single dose, after assay 2 hr post dose, 10 mg/kg) was 0.01541 µM, the “Mean [Brain]” value ([1]; 30 mg/kg PO single dose, after assay 2 hr post dose, 30 mg/kg) was 0.133 µM and 0.1224 µM and 0.09287 µM and 0.1253 µM and the “Mean [Brain]” value [1, 3] was 0.3467 µM. For the same molecule, the “Mean [Plasma]” value [1, 3] was 0.5385 µM, the concentration at 2 hr ([1]; Scn8a^N1768D/+ (heterozygous gain-of-function knock-in line), brain, 30 mg/kg, 30 mg/kg PO single dose, after assay 2 hr post dose, read-out: Mean [Brain]) was 96.6 nM and the concentration at 2 hr ([1]; Scn8a^N1768D/+ (heterozygous gain-of-function knock-in line), brain, 100 mg/kg, 100 mg/kg PO single dose, after assay 2 hr post dose, read-out: Mean [Brain]) was 357 nM. For the same molecule, the concentration at 2 hr ([1]; Scn8a^N1768D/+ (heterozygous gain-of-function knock-in line), plasma, 3 mg/kg, 3 mg/kg PO single dose, after assay 2 hr post dose, read-out: Mean [Plasma]) was 3.45 nM, the concentration at 2 hr ([1]; Scn8a^N1768D/+ (heterozygous gain-of-function knock-in line), plasma, 10 mg/kg, 10 mg/kg PO single dose, after assay 2 hr post dose, read-out: Mean [Plasma]) was 9.56 nM and the concentration at 2 hr ([1]; Scn8a^N1768D/+ (heterozygous gain-of-function knock-in line), plasma, 100 mg/kg, 100 mg/kg PO single dose, after assay 2 hr post dose, read-out: Mean [Plasma]) was 717 nM. The concentration at 2 hr ([1]; Scn8a^N1768D/+, brain, 2 mg/kg, 2 mg/kg PO every 12 hr, day 7, 2 hr after 13th dose, read-out: Mean [Brain]) was 10.5 nM, the concentration at 2 hr ([1]; Scn8a^N1768D/+, brain, 2 mg/kg, 2 mg/kg PO single dose, after assay 2 hr post dose, read-out: Mean [Brain]) was 8.02 nM and the concentration at 2 hr ([1]; Scn8a^N1768D/+, brain, 6 mg/kg, 6 mg/kg PO every 12 hr, day 7, 2 hr after 13th dose, read-out: Mean [Brain]) was 28.8 nM. It also gave a concentration at 2 hr ([1]; Scn8a^N1768D/+, brain, 200 mg/kg, 200 mg/kg PO single dose, after assay 2 hr post dose, read-out: Mean [Brain]) of 3850 nM, a concentration at 2 hr ([1]; Scn8a^N1768D/+, brain, 300 mg/kg, 300 mg/kg PO single dose, after assay 2 hr post dose, read-out: Mean [Brain]) of 6940 nM and a concentration at 2 hr ([1]; Scn8a^N1768D/+, plasma, 2 mg/kg, 2 mg/kg PO every 12 hr, day 7, 2 hr after 13th dose, read-out: Mean [Plasma]) of 2.95 nM. For the same molecule, the concentration at 2 hr ([1]; Scn8a^N1768D/+, plasma, 2 mg/kg, 2 mg/kg PO single dose, after assay 2 hr post dose, read-out: Mean [Plasma]) was 1.08 nM, the concentration at 2 hr ([1]; Scn8a^N1768D/+, plasma, 6 mg/kg, 6 mg/kg PO every 12 hr, day 7, 2 hr after 13th dose, read-out: Mean [Plasma]) was 13.2 nM and the concentration at 2 hr ([1]; Scn8a^N1768D/+, plasma, 200 mg/kg, 200 mg/kg PO single dose, after assay 2 hr post dose, read-out: Mean [Plasma]) was 12600 nM. The concentration at 2 hr ([1]; Scn8a^N1768D/+, plasma, 300 mg/kg, 300 mg/kg PO single dose, after assay 2 hr post dose, read-out: Mean [Plasma]) was 31500 nM and the “accumulation in the plasma or tissue on repeated dosing” value ([1]; every 12 hr for 13 doses, mice and rats) was “did not appreciably accumulate”.
